In patent US5695970A, “Glucan lyase producing 1,5-anhydrofructose” (priority 1992, dated 1997):
Like-named read-outs stand apart in the source and are kept apart here.

Key:
α-1,4-glucan lyase = test: Inhibition studies of α-1,4-glucan lyase activity; format: biochemical, Gracilariopsis lemaneiformis; conditions: products accumulating during the enzyme reaction
[1] = format: physicochemical; conditions: for Absorbance at 546 nm: room temperature; for Absorbance (546 nm): Table VII, 10 min after DNS reagent
Description: It can be seen that the reaction was completed in less than 10 minutes. […] (1990) Methods in Plant Biochemistry (Dey, P. M. and Harborne, J. B., eds.), Vol.3, pp. 103-127, Academic Press, London). |Time-course reaction of AF with DNS reagent at room |temperature. The absorbance at 546 nm as a measure of reaction |rate was recorded soon after the addition of 300 μl DNS reagent |to 300 μl sample solution containing varying amount of AF. […] The reaction of AF with 3,5-dinitrosalicylic acid reagent occurred at room temperature and was completed within 10 min (Table VI). A linear relationship exists for AF between the absorbance of 0.1-2.3 at 546 nm and AF content, ranging from 0.3-2.7 μmol or 50-440 μg i 300 μl sample (Table VII). […] This method is applicable to both the smallest substrate as maltose and the largest substrate as amylopectin. |The correlation between AF content and absorbance. |Absorbance was measured 10 min after the addition of |300 μl DNS reagent to 300 μl sample solution |containing varying amount of AF as indicated.

[2] = tested on: hexokinase and glucose-6-phosphate dehydrogenase pathway; test: Metabolization of AF by hexokinase and glucose-6-phosphate dehydrogenase; format: biochemical
glucose peroxidase = test: Metabolization of AF by glucose peroxidase; format: biochemical

Compound: O=C1CO[C@H](CO)[C@@H](O)[C@@H]1O [AF, 1,5-anhydrofructose]
- product inhibition: effect on enzyme reaction rate (α-1,4-glucan lyase): negligible effect
- reducing power (in words) ([1]; 3,5-dinitrosalicylic acid reagent at room temperature): high reducing power
- Absorbance at 546 nm ([1]; AF content 0.55 μmol, reaction time 0 min): 0
- Absorbance at 546 nm ([1]; AF content 0.55 μmol, reaction time 1 min): 0.037
- Absorbance at 546 nm ([1]; AF content 0.55 μmol, reaction time 2 min): 0.180
- Absorbance at 546 nm ([1]; AF content 0.55 μmol, reaction time 3 min): 0.274
- Absorbance at 546 nm ([1]; AF content 0.55 μmol, reaction time 4 min): 0.341
- Absorbance at 546 nm ([1]; AF content 0.55 μmol, reaction time 5 min): 0.386
- Absorbance at 546 nm ([1]; AF content 0.55 μmol, reaction time 6 min): 0.414
- Absorbance at 546 nm ([1]; AF content 0.55 μmol, reaction time 7 min): 0.431
- Absorbance at 546 nm ([1]; AF content 0.55 μmol, reaction time 8 min): 0.440
- Absorbance at 546 nm ([1]; AF content 0.55 μmol, reaction time 9 min): 0.444
- Absorbance at 546 nm ([1]; AF content 0.55 μmol, reaction time 10 min): 0.446
- Absorbance at 546 nm ([1]; AF content 1.26 μmol, reaction time 0 min): 0
- Absorbance at 546 nm ([1]; AF content 1.26 μmol, reaction time 1 min): 0.218
- Absorbance at 546 nm ([1]; AF content 1.26 μmol, reaction time 2 min): 0.468
- Absorbance at 546 nm ([1]; AF content 1.26 μmol, reaction time 3 min): 0.660
- Absorbance at 546 nm ([1]; AF content 1.26 μmol, reaction time 4 min): 0.796
- Absorbance at 546 nm ([1]; AF content 1.26 μmol, reaction time 5 min): 0.888
- Absorbance at 546 nm ([1]; AF content 1.26 μmol, reaction time 6 min): 0.948
- Absorbance at 546 nm ([1]; AF content 1.26 μmol, reaction time 7 min): 0.985
- Absorbance at 546 nm ([1]; AF content 1.26 μmol, reaction time 8 min): 1.007
- Absorbance at 546 nm ([1]; AF content 1.26 μmol, reaction time 9 min): 1.024
- Absorbance at 546 nm ([1]; AF content 1.26 μmol, reaction time 10 min): 1.029
- Absorbance at 546 nm ([1]; AF content 2.36 μmol, reaction time 0 min): 0
- Absorbance at 546 nm ([1]; AF content 2.36 μmol, reaction time 1 min): 0.476
- Absorbance at 546 nm ([1]; AF content 2.36 μmol, reaction time 2 min): 0.930
- Absorbance at 546 nm ([1]; AF content 2.36 μmol, reaction time 3 min): 1.271
- Absorbance at 546 nm ([1]; AF content 2.36 μmol, reaction time 4 min): 1.510
- Absorbance at 546 nm ([1]; AF content 2.36 μmol, reaction time 5 min): 1.671
- Absorbance at 546 nm ([1]; AF content 2.36 μmol, reaction time 6 min): 1.775
- Absorbance at 546 nm ([1]; AF content 2.36 μmol, reaction time 7 min): 1.840
- Absorbance at 546 nm ([1]; AF content 2.36 μmol, reaction time 8 min): 1.880
- Absorbance at 546 nm ([1]; AF content 2.36 μmol, reaction time 9 min): 1.905
- Absorbance at 546 nm ([1]; AF content 2.36 μmol, reaction time 10 min): 1.920
- Absorbance at 546 nm ([1]; AF content 2.84 μmol, reaction time 0 min): 0
- Absorbance at 546 nm ([1]; AF content 2.84 μmol, reaction time 1 min): 0.559
- Absorbance at 546 nm ([1]; AF content 2.84 μmol, reaction time 2 min): 1.222
- Absorbance at 546 nm ([1]; AF content 2.84 μmol, reaction time 3 min): 1.628
- Absorbance at 546 nm ([1]; AF content 2.84 μmol, reaction time 4 min): 1.898
- Absorbance at 546 nm ([1]; AF content 2.84 μmol, reaction time 5 min): 2.070
- Absorbance at 546 nm ([1]; AF content 2.84 μmol, reaction time 6 min): 2.176
- Absorbance at 546 nm ([1]; AF content 2.84 μmol, reaction time 7 min): 2.239
- Absorbance at 546 nm ([1]; AF content 2.84 μmol, reaction time 8 min): 2.278
- Absorbance at 546 nm ([1]; AF content 2.84 μmol, reaction time 9 min): 2.300
- Absorbance at 546 nm ([1]; AF content 2.84 μmol, reaction time 10 min): 2.311
- Absorbance (546 nm) ([1]; AF content 0.264 μmol): 0.113
- Absorbance (546 nm) ([1]; AF content 0.340 μmol): 0.154
- Absorbance (546 nm) ([1]; AF content 0.360 μmol): 0.166
- Absorbance (546 nm) ([1]; AF content 0.526 μmol): 0.305
- Absorbance (546 nm) ([1]; AF content 0.540 μmol): 0.237
- Absorbance (546 nm) ([1]; AF content 0.636 μmol): 0.355
- Absorbance (546 nm) ([1]; AF content 0.655 μmol): 0.514
- Absorbance (546 nm) ([1]; AF content 0.702 μmol): 0.584
- Absorbance (546 nm) ([1]; AF content 0.929 μmol): 0.682
- Absorbance (546 nm) ([1]; AF content 1.089 μmol): 0.710
- Absorbance (546 nm) ([1]; AF content 1.148 μmol): 0.880
- Absorbance (546 nm) ([1]; AF content 1.181 μmol): 0.880
- Absorbance (546 nm) ([1]; AF content 1.241 μmol): 1.099
- Absorbance (546 nm) ([1]; AF content 1.514 μmol): 1.415
- Absorbance (546 nm) ([1]; AF content 1.529 μmol): 1.260
- Absorbance (546 nm) ([1]; AF content 1.588 μmol): 1.516
- Absorbance (546 nm) ([1]; AF content 1.627 μmol): 1.302
- Absorbance (546 nm) ([1]; AF content 1.712 μmol): 1.409
- Absorbance (546 nm) ([1]; AF content 2.031 μmol): 1.830
- Absorbance (546 nm) ([1]; AF content 2.052 μmol): 1.703
- Absorbance (546 nm) ([1]; AF content 2.183 μmol): 1.806
- Absorbance (546 nm) ([1]; AF content 2.241 μmol): 1.787
- Absorbance (546 nm) ([1]; AF content 2.362 μmol): 1.875
- Absorbance (546 nm) ([1]; AF content 2.683 μmol): 2.266
- Absorbance (546 nm) ([1]; AF content 3.221 μmol): 2.590
- metabolization through hexokinase and glucose-6-phosphate dehydrogenase pathway [2]: can not be metabolized
- metabolization by glucose peroxidase (glucose peroxidase): can not be metabolized
